Assay results: PubChem BioAssay AID179 (DTP/NCI, 2004)
Activity calls are given as the source filed them.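 How the source made its calls: active means compounds giving half or more protection of infected cells from virus-caused growth loss, again on retest; inactive means the rest.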

Tested on: CEM cells HIV-1 protection, formazan growth assay
Experiment: NCI AIDS Antiviral Assay
Conditions: for IC50: measured here: growth of uninfected CEM cells
Summary of the method: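 Screen of anti-HIV-1 activity in human CEM cells using a formazan-based growth measurement at five drug concentrations. Hits with 50% or greater protection were repeated, and confirmation required reproducible complete protection.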

Row | Compound | EC50 [µM] | IC50 [µM] | outcome
1 | CCCCCCCCCCCCn1[nH]c(C)c(C(=S)SCCCCCCCC)c1=O | > 57.5 | 56.2 | –
2 | COC(=O)/C=C(\C)C(=O)N(C)c1ccccc1I | > 200 | 123 | –
3 | CC(=O)Nc1ccc(C(=O)NN2C(=O)C(Cl)C2c2cccc([N+](=O)[O-])c2)cc1 (configuration not stated) | > 200 | 85.1 | –
4 | CN(C)/N=N/c1nc2c(c(=O)n(C)c(=O)n2C)n1CC1CO1 (configuration not stated) | > 200 | 12 | –
5 | CN1C(=S)N2CCCCCCCC2C(C#N)=C1N (configuration not stated) | > 200 | > 200 | –
6 | N#Cc1cccc(C=C2C(=O)c3ccccc3C2=O)c1 | > 36.3 | > 36.3 | –
7 | CN(C(=O)C1=CCC2(CC1)OCCO2)c1ccccc1OS(=O)(=O)C(F)(F)F | > 200 | > 200 | –
8 | COc1cc2c(c(OC)c1OC)C1=NNC(=O)C1(C)CC2 (configuration not stated) | > 617 | 479 | –
9 | COc1ccc(NC(=S)NN=C(C)c2cccc(C(C)=NNC(=S)Nc3ccc(OC)cc3)n2)cc1 | > 200 | 55 | –
10 | CC(=O)Nc1ccc(C2CC(c3ccc([N+](=O)[O-])cc3)=Nc3ccccc3S2=O)cc1 (configuration not stated) | > 3.31 | > 3.31 | –
11 | c1csc(-c2sc(-c3ccsc3)cc2Cc2ccsc2)c1 | – | – | inactive
12 | CCOC(=O)C(C(=O)c1ccccc1)C(=O)c1ccccc1 | > 45.7 | > 45.7 | –
13 | Cc1cc([N+](=O)[O-])ccc1Nc1cccc(Cl)c1C | – | – | inactive
14 | COc1ccc(-c2nc(Nc3ccccc3)sc2Cc2sc(Nc3ccccc3)nc2-c2ccc(OC)cc2)cc1 | – | – | inactive
15 | OC1(c2ccccc2)CSC2=Nc3ccccc3C3CCN1N23 (configuration not stated) | > 200 | 36.3 | –
16 | COc1cc(C)cc2c1OC(c1ccccc1)CC2=O (configuration not stated) | > 200 | 52.5 | –
17 | Cc1ccc(S(=O)(=O)N/N=C(/CC(=O)c2c(C)n([O-])c3ccccc3[n+]2=O)C(=O)Nc2ccc(C)c(C)c2)cc1 | > 6.46 | > 6.46 | –
18 | Cc1ccc(C(=O)O/N=C2/CCC/C2=C\c2ccccc2)cc1 | – | – | inactive
19 | CC1=CC(=O)/C(=C/n2c(=S)[nH]c3cc(C)ccc32)C(=O)O1 | > 200 | 195 | –
20 | Cc1ccc2nc(Nc3ccccc3C)c(Nc3ccccc3C)nc2c1 | – | – | inactive
21 | CCCCCCCCCCCCC(CCCCCCCCCCCC)OP(=O)(O)O | – | – | inactive
22 | CC(=O)O[C@H]1CC[C@]2(C)C3=CC[C@]4(C)[C@@H](C(C)=O)CC[C@H]4[C@@]34C=C[C@]2(C1)C1C(=O)OC(=O)C14 (some centres not stated) | > 200 | 70.8 | –

Row | Compound | EC50 [µM] | IC50 [µM] | outcome
23 | O=C(OC1=CCN(Br)C1=O)C1=C(O)C(=O)N(Br)C1 | > 200 | 32.4 | –
24 | Cc1c(O)c(OC2OC(CO)C(O)C(O)C2O)cc2c1CC[C@@H]1C2(C)C(=O)C[C@]2(C)[C@@H]([C@@](C)(O)C(O)/C=C/C(C)(C)O)[C@H](O)C[C@@]12C (some centres not stated) | > 200 | > 200 | –
25 | CN(C)CCNC(=O)c1cccc2c1Oc1cccc([N+](=O)[O-])c1O2 | > 200 | 22.4 | –
26 | COc1ccccc1NC(=S)N=Nc1c(O)[nH]c2ccccc12 | > 200 | 174 | –
27 | c1ccc(CN2CCC3(N4CCOCC4)C(C2)N=NN3c2ccccc2)cc1 (configuration not stated) | > 200 | 110 | –
28 | C=CCNC(=S)N1CC(C)C(=O)Nc2ccccc21 (configuration not stated) | > 661 | > 661 | –
29 | COC1/C=C/OC2(C)Oc3c(C)c(O)c4c(O)c(c(/C=N/Nc5ccc([N+](=O)[O-])cc5[N+](=O)[O-])c(O)c4c3C2=O)NC(=O)C(C)=C/C=C/C(C)C(O)C(C)C(O)C(C)C(OC(C)=O)C1C (configuration not stated) | > 200 | 7.08 | –
30 | O=C(Nc1ccccc1)OCCN=c1c2ccccc2ccc2ccccc12 | 17 | 24.5 | –
31 | N#C/C(=C\c1cccc(Cl)c1Cl)c1ccccc1 | > 24.5 | > 24.5 | –
32 | NCCSC12CC3CC(CC(C3)C1)C2 | > 200 | 67.6 | –
33 | CCSc1nc(C)nc2c1sc1nc3ccccc3n12 | > 100 | > 100 | –
34 | COC1=C(C)C(=O)C(=O)c2cccnc21 | – | – | inactive
35 | C=C1C(=O)OC2C=C(CCC(C)=O)C(C)C(OC(C)=O)CC12 (configuration not stated) | – | – | inactive
36 | O=c1oc2ncccc2n1Cc1ccc([N+](=O)[O-])cc1 | > 200 | > 200 | –
37 | CC(C)=C[C@@H]1C[C@H](n2cc(C)c(=O)[nH]c2=O)ON1CCOS(=O)(=O)c1ccc(C)cc1 | > 200 | 81.3 | –
38 | COC(=O)C(=O)C(C(=O)C(=O)Nc1cccc(C(C)=O)c1)c1nc2ccc([N+](=O)[O-])cc2[nH]c1=O (configuration not stated) | > 64.6 | > 64.6 | –
39 | COC(=O)CN(CC(=O)NCCCBr)C1CCCCC1N(CC(=O)OC)CC(=O)OC (configuration not stated) | > 200 | > 200 | –
40 | O=[N+]([O-])c1ccc(CSc2nncc3[nH]cnc23)cc1 | 31.6 | 63.1 | –
41 | COC(=O)/C=C/c1cc(OC)c2c(c1)[C@H](C(=O)OC)[C@@H](c1ccc(O)c(OC)c1)O2 | > 20 | 1.02 | –
42 | O/N=C\c1c2c(cc3c1CCC3)CCC2 | > 200 | > 200 | –
43 | O=c1[nH]c(=O)n(C2OC(CO)CC2F)cc1Cl (configuration not stated) | > 186 | > 186 | –
44 | C=CC1OC(CCCOC(=O)C(C)(C)C)O[C@@H]1CC (some centres not stated) | > 200 | > 200 | –

Row | Compound | EC50 [µM] | IC50 [µM] | outcome
45 | Cc1ccc(Nc2cn(COCc3ccccc3)c(=O)[nH]c2=O)cc1 | > 200 | > 200 | –
46 | Cc1c(NC=C(C#N)C#N)c(=O)n(-c2ccccc2)n1C | > 200 | > 200 | –
47 | O=C(NN1C(=O)C(Cl)C1c1ccccc1O)c1ccccc1O (configuration not stated) | > 56.2 | 8.32 | –
48 | O=C(CCCCCCCCC(=O)OCC1OC(n2cnc3c(=O)[nH]cnc32)C(O)C1O)OCC1OC(n2cnc3c(=O)[nH]cnc32)C(O)C1O (configuration not stated) | > 355 | > 355 | –
49 | O=P(O)(O)C=C=C1CCCCC1 | > 200 | > 200 | –
50 | CC(C)CC(NC(=O)C(Cc1ccccc1)NC(=O)[C@H]1CC[C@H](NC(=O)C(N)Cc2ccc(O)cc2)C1)C(N)=O (some centres not stated) | – | – | inactive
51 | COc1ccc(OC)c(CCc2cc(OC)c(OC)cc2C)c1 | > 58.9 | 2.82 | –
52 | COC(=O)c1c(O)c2c(c3c1OC(C)(C)CC3)OC(C)(C)CC2 | > 200 | 93.3 | –
53 | [N-]=[N+]=NC[C@H]1OCO[C@H](CN=[N+]=[N-])[C@H]2OCCOCCOc3ccccc3OCCOCCO[C@@H]21 | > 200 | > 200 | –
54 | O=C1c2ccccc2-c2nnc3c(c21)-c1ccccc1C3 | > 200 | 93.3 | –
55 | Cc1ccc(S(=O)(=O)Nc2ccccc2C(C)(C)C)cc1 | – | – | inactive
56 | Cc1ccc(Cc2nn(C)c(=O)n2-n2cccc2)cc1 | > 200 | 102 | –
57 | CC(=O)C1C(c2ccccc2)C2(C)OC(=O)C(C#N)C12C (configuration not stated) | – | – | inactive
58 | CCCc1[nH]c(SCCCCCCCCSc2nc(-c3ccc(F)cc3)c(CCC)[nH]2)nc1-c1ccc(F)cc1 | > 9.33 | > 9.33 | –
59 | CC(=O)NC(CCC(=O)c1ccc(Cl)cc1Cl)C(=O)O (configuration not stated) | > 200 | > 200 | –
60 | Nc1ncc(N)c(N)n1 | > 200 | 132 | –
61 | CCOc1ccc(/C=C/C(=O)c2ccccc2)cc1 | > 200 | 34.7 | –
62 | CC(C)=CCC(O)[C@](C)(O)[C@H]1[C@H](O)C[C@@]2(C)[C@@H]3CCc4cc(O)c(OC5OC(CO)C(O)C(O)C5O)cc4C3(C)C(=O)C[C@]12C (some centres not stated) | > 200 | > 200 | –
63 | Cc1[nH]c2ccccc2c1C1Cc2ccccc2N1C(=O)/C=C\C(=O)O (configuration not stated) | > 724 | 41.7 | –
64 | COc1cc(OC)c(/C=N/N=C(\N)NO)c(OC)c1 | > 200 | > 200 | –
65 | COC1/C=C/OC2(C)Oc3c(C)c(O)c4c(O)c(c(/C=N/N5CCCN(C)CC5)c(O)c4c3C2=O)NC(=O)/C(C)=C\C=C\C(C)C(O)C(C)C(O)C(C)C(OC(C)=O)C1C (configuration not stated) | > 200 | 89.1 | –
66 | COc1cc(C2c3cc4c(cc3OC(Nc3ccccc3)C2C)OCO4)cc(OC)c1OC (configuration not stated) | > 200 | 0.275 | –

Row | Compound | EC50 [µM] | IC50 [µM] | outcome
67 | O=c1cc2c(=O)oc3cc(O)c(O)oc3c2c(O)c1O | > 324 | 13.8 | –
68 | C[N+]12CCCCC1CC(=O)CC2 (configuration not stated) | > 851 | > 851 | –
69 | O=C(O)C1[C@@H](C(=O)O)C1(Br)CBr (some centres not stated) | > 200 | > 200 | –
70 | CC1(C)CNC(=S)S1 | > 339 | > 339 | –
71 | c1ccc(-c2sc(-c3cccs3)cc2Cc2cccs2)cc1 | > 200 | 83.2 | –
72 | CCOC(=O)c1nc(SC)sc1NC(=O)c1ccc([N+](=O)[O-])cc1 | > 200 | > 200 | –
73 | Cc1ccc(S(=O)(=O)OCCOS(=O)(=O)c2ccc(C)cc2)cc1 | > 36.3 | > 36.3 | –
74 | CCCCC1N=CNc2c1ccc1c2[nH]c2ccccc21 (configuration not stated) | > 25.7 | 6.17 | –
75 | CCN(CC)C(=O)Cn1c2c(c3ccccc31)CCCC2 | > 200 | 138 | –
76 | Clc1nc(Cl)nc(N2CCCc3ccccc32)n1 | > 200 | 3.89 | –
77 | CC(=O)N1N=C(c2ccc3ccccc3c2O)CC1c1cccs1 (configuration not stated) | > 200 | 12 | –
78 | Nc1ccnc2c1ncn2[C@H]1C[C@H](O)[C@@H](CO)O1 | > 200 | > 200 | –
79 | N/C(=N\NS(=O)(=O)c1ccccc1)Oc1ccc(Cl)cc1 | > 398 | 339 | –
80 | Cc1ccc(-n2c3nc(=O)n(C)c(=O)c-3cc3c(OCc4ccccc4)cccc32)cc1 | > 19.5 | > 19.5 | –
81 | CS(=O)(=O)Nc1nc2ccccc2c(=O)o1 | > 200 | > 200 | –
82 | COC(=O)C1C2C=CC(C2)N1[C@@H](C)c1ccccc1 (some centres not stated) | > 28.2 | > 28.2 | –
83 | N#CCC(=O)N/N=C1/C(=O)NC(=O)C(=O)C1c1nc2ccccc2s1 (configuration not stated) | – | – | inactive
84 | CCCN(CCC)C1=Nc2ccccc2-n2cnnc2C1 | > 200 | 178 | –
85 | [N-]=[N+]=NCC1OCC(O)C(OCc2ccccc2)C1OCc1ccccc1 (configuration not stated) | > 200 | 95.5 | –
86 | Cc1nc(C(N)=S)sc1C(=O)C/C(=N/N)C(=O)Nc1cccc(Cl)c1C | > 166 | > 166 | –
87 | COc1ccc2nc3cccc([N+](=O)[O-])c3c(NCCN(CCO)CCO)c2c1 | > 2 | 0.0977 | –
